Consider seven molecules from PubChem BioAssay (NCI).

What all share (experiment): NCI anticancer screen, dose series, 48 h
In experiment [1] the test system is CCRF-CEM leukemia.
In experiment [2] the test system is HCT-116 colon.
Experiment [3] concerns NCI-H23 lung.
For experiment [4], the system named is IGROV1 ovarian.
The subject of experiment [5] is SR leukemia.
The subject of experiment [6] is SNB-19 CNS.
In experiment [7] the test system is HOP-92 NSCLC.
Experiment [8] relates to NCI-H226 lung.
Experiment [9] concerns UO-31 renal.
The test system of experiment [10] is MOLT-4 leukemia.

Each structure is given as a SMILES string.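 Values below derive from 48-hour exposures of cells grown in 96-well plates, with endpoints linearly interpolated between the two concentrations bracketing the appropriate inhibition level. GI50 = concentration required for 50% inhibition of growth. The concentration for full growth arrest is given as TGI.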 Where a SMILES comes first, the peptide text is derived from it. [ ]: non-standard residue; d: D form. The star is where a group is joined. NMeF = CN[C@@H](Cc1ccccc1)C(=O)O; NMeV = CN[C@H](C(=O)O)C(C)C; Boc = CC(C)(C)OC(=O)*; OBn = c1ccc(CO*)cc1

`CS(=O)(=O)c1ccc(Oc2cc(F)cc(C#N)c2)c2c1[C@H](O)C(F)(F)C2`: the GI50 in experiment [1] is 21.9 µM; in experiment [2], greater than 100 µM; in experiment [3] it was greater than 100 µM; in [4], greater than 100 µM; in [5], greater than 100 µM; in [6], greater than 100 µM. Besides, the GI50 in experiment [7], in experiment [8], in experiment [9] and in experiment [10] was greater than 100 µM throughout. For the same molecule, the TGI was 47.5 µM in [1]; greater than 100 µM in experiment [2]; greater than 100 µM in [3]; greater than 100 µM in experiment [4]; greater than 100 µM in experiment [5]; greater than 100 µM in experiment [6]. For the same molecule, the TGI in experiment [7], in experiment [8], in experiment [9] and in experiment [10] was greater than 100 µM throughout.

In the case of `O=C(NCCNc1nccc(-c2c(-c3ccc(F)cc3)nc3sccn23)n1)c1ccccc1`, the GI50 in experiment [1] is 3.83 µM; in experiment [2], 4.37 µM; in [3], 10.9 µM; in [4], 3.48 µM; in experiment [5] it was 16.7 µM; in experiment [6] it was 11.9 µM. For the same molecule, the GI50 is 14.8 µM in [7], 5.87 µM in [8], 1.75 µM in experiment [9] and 12.2 µM in experiment [10]. The TGI in experiment [1] was 36.3 µM; in [2], 35.8 µM; in [3] it was 45.1 µM; in experiment [4] it was 24.1 µM; in [5], 47.3 µM; in [6], greater than 100 µM. The TGI was found to be 68.2 µM in experiment [7], 25 µM in experiment [8], 18.5 µM in experiment [9] and 54.8 µM in [10].

Take `Brc1ccccc1C=NC12CC3CC(CC(C3)C1)C2`: the TGI in experiment [1] was greater than 100 µM; in experiment [2] it was greater than 100 µM; in experiment [3] it was greater than 100 µM; in experiment [4], greater than 100 µM; in experiment [5], greater than 28.2 µM; in experiment [6], greater than 100 µM. The TGI in experiment [7] was greater than 100 µM; in experiment [8], greater than 100 µM; in experiment [9], greater than 100 µM; in [10], greater than 91.1 µM.

Regarding `CC(=O)OC1Oc2cc(C)c(C)cc2-c2oc(=O)c(-c3ccc(F)cc3)cc21` (centres undefined), the GI50 in experiment [1] was 3.61 µM; in experiment [2], 4.23 µM; in [3], 4.41 µM; in [4] it was 7.94 µM; in experiment [5] it was 1.21 µM; in [6] it was 11.6 µM. For the same molecule, the GI50 in experiment [7] was 3.1 µM; in [8] it was 12.9 µM; in experiment [9], 4.92 µM; in [10], 3.1 µM. Moreover, the TGI in experiment [1] was 21.4 µM; in experiment [2], 46.2 µM; in experiment [3], 42.7 µM; in [4] it was 85.2 µM; in [5] it was 5.22 µM; in experiment [6], greater than 100 µM. Besides, the TGI in experiment [7] was 16.9 µM; in experiment [8], greater than 100 µM; in experiment [9], greater than 100 µM; in [10] it was 12.1 µM.

As for `C/C(=C\CCc1ccsc1)CC/C=C(\C)CCCN1CCC(CO)CC1`, the GI50 in experiment [1] is 2.09 µM; in experiment [2] it was 1.67 µM; in [3], 3.4 µM; in experiment [4] it was 3.26 µM; in [5], 1.81 µM; in [6], 2.63 µM. Also, the GI50 in [7] is 1.02 µM; in experiment [8] it was 3.94 µM; in experiment [9] it was 2.83 µM; in [10], 2.3 µM. The TGI in [1] was found to be 4.8 µM; in experiment [2], 3.32 µM; in experiment [3], 12.9 µM; in experiment [4], 10.8 µM; in [5], 4.4 µM; in [6], 9.28 µM. Also, the TGI in experiment [7] worked out at 3.69 µM; in [8], 21 µM; in experiment [9], 16 µM; in experiment [10], 5.8 µM.

Consider `CC(C)[C@@H](C(=O)N1CCC[C@H]1C(=O)OCc1ccccc1)N(C)C(=O)[C@H](C(C)C)N(C)C(=O)[C@H](Cc1ccccc1)N(C)C(=O)[C@H](NC(=O)OC(C)(C)C)C(C)C` (Boc-[dV][NMeF][NMeV][NMeV]P-OBn), for which the GI50 in experiment [1] is 36.9 µM; in experiment [2] it was 19.6 µM; in experiment [7] it was 20.9 µM; in experiment [10] it was 3.68 µM. Moreover, the TGI is greater than 100 µM in [1]; greater than 100 µM in experiment [2]; greater than 50 µM in experiment [3]; greater than 100 µM in experiment [4]; greater than 100 µM in experiment [5]; greater than 100 µM in [6]. Further, the TGI in experiment [7], in [8], in experiment [9] and in experiment [10] was greater than 100 µM throughout.

In the case of `COc1cc(/C=C2\C(=O)N(c3ccccc3)c3ccccc32)cc(OC)c1OC`, the GI50 in [1] was 1.75 µM; in experiment [2], 3.47 µM; in [3] it was 9.79 µM; in experiment [4], 6.61 µM; in [5] it was 2.1 µM; in [6], 6.1 µM. Further, the GI50 is 3.71 µM in experiment [7], 9.69 µM in [8], 13.7 µM in [9] and 2.33 µM in experiment [10]. The TGI in experiment [1] came to 7.78 µM; in experiment [2], 12.4 µM; in experiment [3] it was 30.1 µM; in experiment [4], 32 µM; in experiment [5], 10.4 µM; in experiment [6], 25.5 µM. For the same molecule, the TGI was 20.7 µM in [7], 29.3 µM in experiment [8], 31.3 µM in experiment [9] and 10.8 µM in experiment [10].
